# Earlier results in US20080249137A1, “PPAR active compounds” (priority 2005, published 2008).
# Tests used:
# PPARδ = target: T1, PPARδ (Homo sapiens, UniProt Q03181)
# T1 sequence (Q03181 1-441): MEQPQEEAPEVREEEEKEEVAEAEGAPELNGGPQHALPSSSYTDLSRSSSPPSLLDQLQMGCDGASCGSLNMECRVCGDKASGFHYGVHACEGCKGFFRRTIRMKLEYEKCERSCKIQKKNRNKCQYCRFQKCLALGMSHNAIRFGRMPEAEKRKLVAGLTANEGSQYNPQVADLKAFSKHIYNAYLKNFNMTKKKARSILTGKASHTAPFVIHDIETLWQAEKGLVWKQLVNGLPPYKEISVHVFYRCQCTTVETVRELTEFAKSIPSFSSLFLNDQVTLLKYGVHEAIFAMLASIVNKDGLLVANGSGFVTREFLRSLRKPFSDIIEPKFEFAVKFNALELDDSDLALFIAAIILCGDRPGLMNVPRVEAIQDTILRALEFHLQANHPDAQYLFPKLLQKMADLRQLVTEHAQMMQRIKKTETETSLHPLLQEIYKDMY
# murine PPARα = target: T2, murine PPARα (Mus musculus, UniProt P23204)
# T2 sequence (P23204 1-468): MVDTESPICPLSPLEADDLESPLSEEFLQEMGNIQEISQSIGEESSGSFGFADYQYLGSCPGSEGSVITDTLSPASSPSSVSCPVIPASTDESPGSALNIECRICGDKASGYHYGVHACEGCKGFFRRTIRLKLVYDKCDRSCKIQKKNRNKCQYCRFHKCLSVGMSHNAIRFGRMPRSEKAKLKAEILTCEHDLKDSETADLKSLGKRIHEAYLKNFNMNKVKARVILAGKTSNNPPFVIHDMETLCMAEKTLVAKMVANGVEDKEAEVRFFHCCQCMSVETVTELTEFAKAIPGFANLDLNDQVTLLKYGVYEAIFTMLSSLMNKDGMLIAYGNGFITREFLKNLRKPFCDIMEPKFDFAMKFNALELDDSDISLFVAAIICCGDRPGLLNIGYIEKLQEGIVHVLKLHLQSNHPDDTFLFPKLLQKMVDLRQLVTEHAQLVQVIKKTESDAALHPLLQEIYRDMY
# [1] = patients, large prospective trial
agonist selectivity for PPARδ over PPARγ (PPARδ),activity on murine PPARα (murine PPARα),SMILES,reduction in cardiovascular events or death [1]
approximately 30 fold,inactive,CCCc1c(OCCCOc2ccc(OCC(=O)O)cc2)ccc(C(C)=O)c1O [Compound L-165041],
,,Cc1ccc(C)c(OCCCC(C)(C)C(=O)O)c1 [gemfibrozil],22%
